Patent publication US20190231745A1, “INHIBITORS OF T CELL RECEPTOR AND USES THEREOF” (Consejo Superior De Investigaciones Cientificas, priority 2017, published 2019)
Counter-ions that a name gives are not always drawn.

Experiments:
[1] = system: intracellular F-actin in human blood T cells; assay: TCR-triggered actin polymerization (phalloidin staining); format: cell-based; settings: T-cell, read-out: IC50 of inhibition of the anti-CD3 elicited increase of intracellular F-actin
ectromelia virus (ECTV) = settings: mouse, in vivo
[2] = system: Nck recruitment to the TCR; assay: Co-immunoprecipitation of endogenous Nck with the TCR; format: cell-based; settings: human blood T cells stimulated with anti-CD3
Method: (§1) FIG. 2. Target specificity of AX-024. […] The experiment was repeated three times. […] RUs, response units.
For co-immunoprecipitation analysis of endogenous Nck, a total of […] enriched human blood T-cells were pre-incubated in serum-free RPMI medium with compound AX-024 before stimulation with soluble OKT3 (10 μg/ml) for 1 minute at 37° C. Cells were lysed as above, and immunoprecipitation was performed with OKT3 and protein A Sepharose beads. The resulting immunoprecipitated extracts were resolved in a 10% acrylamide SDS-PAGE gel for immunoblotting with a rabbit anti-Nck antibody and reprobed with anti-CD3ζ serum.

[3] = system: murine naïve spleen B cells; assay: B cell proliferation (CellTrace Violet); format: cell-based, mouse
Method: as §1
Proliferation was calculated according to the total number of cell divisions (by Cell-Trace Violet dilution).

[4] = system: purified human blood T cells stimulated with anti-CD3; assay: Microarray analysis of gene expression; format: cell-based; settings: 1 nM, anti-CD3 4 hours, two donors
Method: RNA was extracted using the RNAeasy kit according to the manufacturer's instructions (QIAGEN 74134) and its integrity was assessed using an Agilent 2100 Bioanalyzer (Agilent). Labelling and hybridization were performed according to the protocols from Affymetrix. Briefly, 100 ng of total RNA were amplified and labelled using the WT Plus reagent kit (Affymetrix) and then hybridized to Human Gene 2.0 ST Array (Affymetrix). Washing and scanning were performed using the Affymetrix GeneChip System (GeneChip Hybridization Oven 645, GeneChip Fluidics Station 450 and GeneChip Scanner 7G).

Swiss albino mice = assay: Toxicity after single oral dose, mice; format: in vivo, mouse
Text: (§2) FIG. S7. Toxicity of AX-024 in mice and rats. (A) Effect of distinct single doses of AX024. HCl administered intraperitoneally on body weight gain of CD-1 mice over 14 days. The data represent the mean±s.e.m. (n=10 per group). (B) Effect of distinct single doses of AX024. HCl administered orally on body weight gain of Swiss albino mice over 14 days. The data represent the mean±s.e.m. (n=2 per group). (C) Effect of distinct single doses of AX-024. HCl administered per orally on body weight gain of Sprague Dawley rats over 14 days. The data represent the mean±s.e.m. (n=2 per group). (D) Summary of acute toxicological findings in different species and calculation of the human equivalent dose.

[5] = biological target: CD3ε PRS peptide binding to immobilized SH3.1(Nck1) domain (Homo sapiens, UniProt P16333); assay: Surface plasmon resonance; settings: SPR, maximum steady-state response units; read-out: IC50 for the inhibition of CD3ε peptide binding
Method: as §1
HBS-EP was used as the running buffer (10 mM HEPES [pH 7.4], 150 mM NaCl, 3 mM EDTA, 0.005% [v/v] Surfactant P20). Immobilization of the GST-Nck1(SH3.1) purified recombinant protein (final concentration 30 μg/ml) was performed by the amino coupling strategy using sodium acetate (10 mM) at pH 4.5 and 150 μL of a solution of EDC/NHS (v/v), with optimum immobilization achieved at approximately 5000 resonance units. For interaction experiments, increasing concentrations of the CD3ε peptide […] and AX-024 were used on the same chip. In all cases, the flow rate was […]. After each interaction, 2.5 M glycine (pH 2) was used to regenerate the surface, and the analyte response after regeneration was constant after repeated injections in all the experiments and within ±10% of the response following the first injection.

[6] = system: thymocytes of 4 week-old C57BL/6 mice; assay: Thymocyte differentiation in vivo; parameters: species or system mouse; settings: administration for 10 days to 4-week-old mice
Method: FIG. S8. Effect of AX-024 on thymocyte differentiation. (A) Flow cytometry analysis of CD24 and TCR expression in thymocytes of 4 week-old C57BL/6 mice exposed to daily doses of oral AX-024 (10 mg/Kg and 40 mg/Kg) or to vehicle alone for 10 consecutive days. Both markers allowed the thymocytes to be divided into five subpopulations (a to e) that were reanalyzed according to CD4 and CD8 expression (right). The data below indicates the percentages of double negative (DN, CD4^− CD8^−), double positive (DP, CD4^+ CD8^+) and single positive (CDSP, CD4^+ CD8^−; CD8SP. CD4^− CD8^+) thymocytes within each a-to-e subpopulation. The data represent the mean±s.e.m. (n=6 mice per group). (B) Absolute cell number in the major thymic DN, DP, CD4SP, CD8SP subpopulations of mice analyzed in A. Numbers of pre- and post-beta selection (DN3 and DN4) and γδT cells are also indicated

CD-1 mice = assay: Acute toxicity, single intraperitoneal injection; format: in vivo, mouse; settings: single intraperitoneal injection 2.8, 14, 70, 350 mg/kg
Text: as §2
Acute toxicity: Eight-week-old CD-1 mice were injected intraperitoneally with different amounts of the hydrochloride salt of AX-024 (AX-024.HCl) dissolved in 0.5 ml of saline. All animals were observed clinically for the appearance of macroscopically visible adverse reactions twice daily over 14 days, as well as immediately after AX-024 administration. A necropsy was carried out on each animal on day 14, and the abdominal, thoracic, and cranial cavities were examined in situ, together with their associated organs.

[7] = system: EAE in MOG-immunized mice; assay: EAE model, therapeutic treatment; format: in vivo, mouse; settings: oral, therapeutic setting
Sprague Dawley rats = assay: Toxicity after single oral dose, rats; format: in vivo
Text: as §2

[8] = system: human peripheral blood T cells stimulated with anti-CD3; assay: Human blood T cell proliferation induced by anti-CD3 (CFSE dilution); format: cell-based
[9] = system: B8R-reactive CD8 T cells in immunized mice; settings: 10 or 40 mg/kg daily, 7 days

| Compound | IC50 [1] [nM] | percentage of IFN-γ responding CD8 T cells upon ex vivo B8R stimulation (ectromelia virus (ECTV)) | survival of rechallenge with lethal dose 60 days later (ectromelia virus (ECTV)) | survival rates, first challenge (ectromelia virus (ECTV)) | concentrations at which Nck recruitment to the TCR was inhibited (dose-dependent) [2] [nM] | B cell proliferation induced by TLR4 agonist LPS ([3]; LPS) | B cell proliferation induced by anti-CD40 ([3]; anti-CD40) | BCR-triggered B cell proliferation ([3]; anti-IgM stimulation, concentrations as high as 10 μM) | number of genes transcriptionally downregulated [4] [genes] | single oral doses without any adverse effects on body weight, organ size or lesions (Swiss albino mice) [mg/kg] | IC50 [5] [nM] | thymocyte subset numbers [6] | body weight gain (CD-1 mice; 14 days) | adverse reactions (CD-1 mice; followed 14 days) | neurological score reached [7] | toxicity for rodents after single administration (Sprague Dawley rats; doses as high 1600 mg/kg) | single oral doses without any adverse effects on body weight, organ size or lesions (Sprague Dawley rats; rats, oral) [mg/kg] | concentration at which inhibitory effects were shown ([8]; T cell proliferation, anti-CD3) [pM] | potency relative to the AX-000 hit in inhibition of TCR-triggered T cell proliferation ([8]; more potent than AX-000) | activation of CD8 T cell response to the viral epitope (IFN-γ production) [9] |
| --- | --- | --- | --- | --- | --- | --- | --- | --- | --- | --- | --- | --- | --- | --- | --- | --- | --- | --- | --- | --- |
| COc1ccc2c(c1)C(c1ccc(F)cc1)=C(CN1CCCC1)CO2 [AX-024] | 1 | indistinguishable from that of the vehicle group | resisted the lethal dose, regardless of their AX-024 treatment history | did not influence survival rates | ≥ 1 | not inhibited | not inhibited | not inhibited | 1093 | ≤ 400 | ~1 | did not have a significant impact | all mice gained weight at a similar rate | no significant adverse reactions | 0 | not toxic | ≤ 1600 | ≤ 1 | > 10,000 fold | – |
| CCCCCCCCc1ccc(CCC(N)(CO)CO)cc1 [fingolimod, reference compound] | – | – | – | – | – | – | – | – | – | – | – | – | – | – | 0 | – | – | – | – | – |
| COc1ccc2c(c1)C(c1ccc(F)cc1)=C(CN1CCCC1)CO2 [AX-024.HCl] | – | – | – | – | – | – | – | – | – | – | – | – | – | – | – | – | – | – | – | Neither dose of the drug significantly inhibited |
